Here are results for three compounds from patent US11639325B2, “Compositions of polyhydroxylated benzophenones and methods of treatment of neurodegenerative disorders” (Massachusetts Institute of Technology, priority 2015, dated 2023).

The subject of data set [1] is Human induced pluripotent stem cell (iPSC)-derived neurons. Kind of data set: Viability (Alamar Blue) of human iPSC-derived neurons under rotenone stress. It counts as cell-based. The source says:
To further determine the effects of exifone on neurodegenerative disorders like frontotemporal dementia, Alzheimer's disease, and Parkinson's disease, a cellular model of mitochondrial dysfunction and tauopathy was used. Human induced pluripotent stem cell (iPSC)-derived neurons from a healthy control (FIG. 15A) and a frontotemporal dementia patient with a mutation in tau (FIG. 15B) were differentiated in culture for eight weeks (See Silva et al., Stem Cell Reports, 2016). […] Cell viability was measured by Alamar Blue (4 h) assay±SD. Statistical Analysis: Student T-Test; ^nsP>0.05, *P<0.05, **P<0.01, ***P<0.001; n=2 and technical triplicates.

Data set [2] relates to 5XFAD mice. The experiment in a line: LTP recording in hippocampal slices of treated 5XFAD mice. Type of data set: in vivo, mouse. The following applies: thirteen-month-old 5XFAD mice, 50 mg/kg i.p. for 2 weeks. Here is the method:
Thirteen-month-old mice were administered doses of 50 mg per kg body weight exifone or vehicle by intraperitoneal injection for 2 weeks before long-term potentiation (LTP) recordings. For LTP recording, mice were anesthetized with isoflurane and decapitated. Transverse hippocampal slices (400 μm thick) were prepared in ice-cold dissection buffer (in mM: 211 sucrose, 3.3 KCl, 1.3 NaH2PO4, 0.5 CaCl2, 10 MgCl2, 26 NaHCO3 and 11 glucose) using a Leica VT1000S vibratome (Leica). Slices were recovered in a submerged chamber with 95% O2/5% CO2-saturated artificial cerebrospinal fluid (ACSF) consisting of (in mM) 124 NaCl, 3.3 KCl, 1.3 NaH2PO4, 2.5 CaCl2, 1.5 MgCl2, 26 NaHCO3 and 11 glucose for 1 h at 28-30° C. For extracellular LTP recording, CA1 field potentials evoked by Schaffer collateral stimulation with bipolar electrode was measured every 30 s. After recording of stable baseline for 15 min, LTP was induced by single theta-burst stimulations (TBS, containing 10 brief bursts which consisted of four pulses at 100 Hz).

Data set [3] concerns the target T1, HDAC2 (Homo sapiens, UniProt Q92769).
T1 construct: purchased BPS Biosciences (San Diego, Calif.)
The experiment in a line: RapidFire Mass Spec assay of HDAC2 deacetylase activity. It counts as biochemical. The settings on record: FIG. 4; read-out: EC50 for HDAC2 activation. The procedure: (§1) Bio-H4K12ac and Bio-p53K382ac peptides were purchased from Anaspec (Fremont, Calif.). Recombinant HDAC1 and HDAC2 were from BPS Biosciences (San Diego, Calif.). Biochemical assays for evaluation of enzyme activity were performed in 384-well microplates (Perkin Elmer, Waltham, Mass.). A high throughput mass spectrometry assay based on RapidFire™ platform (Agilent Technology, Wakefield, Mass.) was used for analysis of HDAC activity with acetylated peptide substrates derived from histone Bio-H4K12ac (Anaspec #64849) and non-histone Bio-p53K382ac (Anaspec #65046) sequences.
For determination of dose dependence curves, test compounds were preincubated with HDAC1 for 15 minutes. […]
For Mass Spec based detection, assay plates were transferred onto a high throughput RapidFire200 integrated autosampler/solid-phase extraction (SPE) system (Agilent Technologies, Wakefield, Mass.) coupled to an API4000 triple quadrupole mass spectrometer (Applied Biosystems, Concord, Ontario, Canada). […] The peaks detected by Mass Spec were integrated and processed with RapidFire peak integration software (Agilent).
Percentage of substrate conversion was estimated from the RapidFire HTMS assay as a function of product and substrate mass spectrum peak areas and is equal to 100*[Product/(Product+Substrate)]. […] MAX and MIN values were calculated from an average of 16 wells of a single column of 384 well plate. […]

For data set [4], the system named is 5XFAD mice. The experiment in a line: Western blotting of hippocampi of treated 5XFAD mice (histone deacetylation). Type of data set: in vivo, mouse. The following applies: 50 mg/kg i.p. for 2 weeks. Here is the method:
To determine the effects of restoration of HDAC1 activity in 5XFAD mice, mice were treated with exifone. Briefly, eight-month-old mice were administered doses of 50 mg/kg body weight exifone or vehicle control (10% DMSO, 10% Tween-80 and 80% saline) by intraperitoneal injection for 2 weeks. After 2 weeks of treatment, hippocampi were dissected and homogenized in RIPA buffer for Western blotting (FIGS. 10B and 10C).
In general terms: A western blot detects proteins with antibodies after separation by electrophoresis.

Data set [5] deals with 5XFAD mice. Kind of data set: 5XFAD mice behavioral tests (open field, contextual and cued fear conditioning). Type of data set: in vivo, mouse. The following applies: 50 mg/kg i.p. for 2 weeks. The procedure: 8-month-old males (WT or 5XFAD mice) received daily for two weeks of full treatment either vehicle (80% saline, 10% DMSO, 10% Tween-80) or exifone (FIG. 1A) (50 mg/kg). Administration was by intraperitoneal injection for 2 weeks. After 2 weeks of treatment, mice were handled more than 3 days before each behavioral test.
Open field test was monitored by TSE Multi Conditioning System, total distance traveled and the number of visits in center were measured using automated activity monitors.
To assess memory formation, fear-conditioning tests in rodents were used. In these paradigms, the extent of freezing behavior, which is defined as the complete lack of movement other than from respiration upon re-exposure to an aversive stimulus (e.g. mild foot shock) and an environmental cue in the form of a specific context (e.g. test chamber) or cue (e.g. a tone), provides an assessment of the strength of memory. […]
(§2) For contextual fear conditioning, mice were put in the conditioning chamber (TSE systems) for 3 min, after which they received a one-time footshock (2 s, 0.8 mA). After 24 hr in the home cage, mice were placed in the same chamber and the freezing bouts, defined as a total lack of movement except for a heartbeat and respiration, were scored during every 10 s during a 3 min period.
(§3) Cued fear conditioning was performed by placing the animals in the test chamber for 3 min following exposure to the auditory cue (30 s, 20 kHz, 75 db sound pressure level) and a foot shock (2 s, 0.8 mA). Associative learning was assessed 24 hr later by placing the mice in the modified chamber and delivery of the identical auditory cue for 3 min.
Behavioral tests were performed on vehicle treated wild type (WT) mice and 5XFAD mice treated with either vehicle control or exifone. […] In both contexts, freezing behavior of the mice was scored for examination memory.

Data set [6] relates to cultured neurons. The experiment in a line: Immunostaining for γH2AX (DNA double-stranded breaks) in cultured neurons. Type of data set: cell-based.
The target in data set [7] is T2, HDAC1 (Homo sapiens, UniProt Q13547).
T2 construct: purchased BPS Biosciences (San Diego, Calif.)
T2 sequence (Q13547 whole entry): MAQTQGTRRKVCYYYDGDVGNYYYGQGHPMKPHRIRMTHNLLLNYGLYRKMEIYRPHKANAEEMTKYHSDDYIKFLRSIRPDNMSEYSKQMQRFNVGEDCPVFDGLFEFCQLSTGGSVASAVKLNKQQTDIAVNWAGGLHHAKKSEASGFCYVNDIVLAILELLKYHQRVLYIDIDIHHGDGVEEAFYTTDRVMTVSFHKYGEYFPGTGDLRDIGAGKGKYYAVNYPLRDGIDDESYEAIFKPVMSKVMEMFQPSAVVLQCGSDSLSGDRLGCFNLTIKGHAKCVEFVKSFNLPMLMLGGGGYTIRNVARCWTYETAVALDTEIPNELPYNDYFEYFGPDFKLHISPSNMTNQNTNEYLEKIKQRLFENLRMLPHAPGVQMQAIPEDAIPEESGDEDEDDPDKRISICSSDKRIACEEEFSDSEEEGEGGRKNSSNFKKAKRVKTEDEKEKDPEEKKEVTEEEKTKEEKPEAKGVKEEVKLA
The experiment in a line: RapidFire Mass Spec assay of HDAC1 deacetylase activity with acetylated peptide substrates. It counts as biochemical. The following applies: for HDAC1 activation (deacetylase activity): Bio-H4K12ac and bio-p53K382ac peptide substrates; for reversal of HDAC1 inhibition by CI-994: HDAC1 preincubated with exifone 1 or 10 μM, or with CI-994 1, 5 or 10 μM for 2 hours. Here is the method: as §1
For determination of dose dependence curves, test compounds were preincubated with HDAC1 for 15 minutes. Histone deacetylase reactions were performed following addition of acetylated peptide substrate. The reactions were performed in standard 384-well plates in 50 μl volume with an assay buffer containing 50 mM Tris, pH 7.4, 100 mM KCl, and 0.01% Brij-35. Enzyme reactions were terminated by adding 5 μl of 10% formic acid. Experiments designed to determine the mechanism of action used a varied range of substrate and test compound concentrations. For determining the dose response of individual compounds, HDAC1 reactions were performed with 1 μM of the acetylated peptide substrate for durations ranging from 45 mins for Bio-p53K382ac and 60 minutes for Bio-H4K12ac, with the aim of keeping the substrate conversion below 10%.
For Mass Spec based detection, assay plates were transferred onto a high throughput RapidFire200 integrated autosampler/solid-phase extraction (SPE) system (Agilent Technologies, Wakefield, Mass.) coupled to an API4000 triple quadrupole mass spectrometer (Applied Biosystems, Concord, Ontario, Canada). Additional details for the RapidFire MS analysis are described elsewhere (Rye et al. Advances in label-free screening approaches for studying sirtuin-mediated deacetylation. J Biomol Screen. 2011 December; 16(10):1217-26; Rye et al. Advances in label-free screening approaches for studying histone acetyltransferases. J Biomol Screen. 2011 December; 16(10):1186-95). The peaks detected by Mass Spec were integrated and processed with RapidFire peak integration software (Agilent).
Percentage of substrate conversion was estimated from the RapidFire HTMS assay as a function of product and substrate mass spectrum peak areas and is equal to 100*[Product/(Product+Substrate)]. Percentage of enzyme activation=[(MIN-test compound)/(MIN−MAX)*100], where MINimal (0%) enzyme activity is observed in the presence of a histone deacetylase inhibitor [10 μM SAHA (suberoylanilide hydroxamic acid), SAHA; Vorinostat] and MAXimal enzyme activity of HDAC1 reaction in absence of test compound as 100% activity. MAX and MIN values were calculated from an average of 16 wells of a single column of 384 well plate. Data were analyzed and plotted using Graphpad Prism 6.
Activator potencies were compared by estimating the EC^1.5 values as a function of EC50 values and maximum relative velocity (RVmax) (Dai et al, 2010). EC^1.5 is the concentration of the activator required to achieve 1.5 fold activation (Dai et al, 2010). Data on enzyme activation were analyzed using non-essential enzyme activation (Segel, (1975) Enzyme Kinetics, John Wiley, New York).

Data set [8] concerns CK-p25 mice. Kind of data set: CK-p25 mouse model of neurodegeneration: immunohistochemistry and fear conditioning. Type of data set: in vivo. Here is the method: as §2, §3
CK-p25 mice are characterized by massive neuronal loss and severe memory impairment after 6 weeks of the p25 transgene induction (Cruz et al. Aberrant Cdk5 activation by p25 triggers pathological events leading to neurodegeneration and neurofibrillary tangles. Neuron. 2003 Oct. 30; 40(3):471-83). Exifone was chronically administered in CK-p25 mice, model, 3-month-old CK-p25 mice and control mice (no p25 overexpression) were induced for 6 weeks. They received either daily Exifone or vehicle for 3 weeks from week 3 to 6 during the induction period (FIG. 8A).
The associative memory in mice was examined by the contextual fear conditioning test described in Example 3. Mice were treated with vehicle control or exifone and freezing behavior observed 24 hours after contextual fear conditioning training.

Where [9] appears, read: increasing exifone concentrations.
[10] abbreviates: AD mice model (CK-p25 mice) as printed.

One may read the EC50 as the concentration needed to bring the measured effect to its halfway point.

Entries after “also recorded” stand apart in the source; their conditions may differ. Like-named read-outs stand apart in the source and are kept apart here.

T1 sequence (Q92769 whole entry): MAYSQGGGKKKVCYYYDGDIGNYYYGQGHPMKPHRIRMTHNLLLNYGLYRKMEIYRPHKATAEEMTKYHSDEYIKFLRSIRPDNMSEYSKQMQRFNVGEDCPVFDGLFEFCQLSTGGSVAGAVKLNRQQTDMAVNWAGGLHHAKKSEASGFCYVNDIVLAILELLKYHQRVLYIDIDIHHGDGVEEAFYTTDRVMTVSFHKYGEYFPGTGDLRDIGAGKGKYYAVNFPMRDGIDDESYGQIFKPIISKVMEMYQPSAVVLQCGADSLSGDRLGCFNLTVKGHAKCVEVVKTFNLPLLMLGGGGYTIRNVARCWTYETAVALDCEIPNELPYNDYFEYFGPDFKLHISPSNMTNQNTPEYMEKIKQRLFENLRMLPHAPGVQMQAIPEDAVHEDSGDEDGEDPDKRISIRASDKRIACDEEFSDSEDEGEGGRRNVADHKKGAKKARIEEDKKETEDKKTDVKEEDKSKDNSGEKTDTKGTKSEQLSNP

As to `C=C(C)[C@H]1Cc2c(ccc3c2O[C@@H]2COc4cc(OC)c(OC)cc4[C@@H]2C3=O)O1` [rotenone], in data set [1] (rotenone, 18 hour), the “decrease in viability of tauopathy patient-derived neurons” value is above 50%.
For `O=C(c1cc(O)c(O)c(O)c1)c1ccc(O)c(O)c1O` [exifone], in data set [2], the LTP induction entry is reported as “reinstatement of LTP induction”. Besides, the EC50 in data set [3] is 82 nM. In addition, the “histone deacetylation and HDAC1 activity in hippocampus” value in data set [4] is “trend towards increased histone deacetylation and HDAC1 activity”. Moreover, in data set [5], the “freezing response in conditioned (contextual) fear conditioning test” value is on record as “significantly increased”; the “freezing response in cued fear conditioning test” value is on record as “significantly increased”; the “open-field total distance traveled and number of visits to the center” value is given as “no effect on either of these parameters”. For the same compound, the “γH2AX intensity (DNA damage)” value in data set [6] was “significantly reduced the intensity of γH2AX; also recorded: protection from DNA damage”. Further, the “rescue of viability of tauopathy patient-derived neurons from rotenone-induced stress” value in data set [1] (8 hours pre-treatment, then 18 hour rotenone, multiple doses) was “rescued the vulnerability”. Besides, in data set [7] (2 hour incubation of HDAC1 at room temperature prior to addition to reaction mix), the “maximal activation of HDAC1” value is reported as “up to nine fold”. In data set [7], the “HDAC1 activation (deacetylase activity)” value is reported as “dose-dependent increase in HDAC1 activation; also recorded: potent small molecule activator of HDAC1; also recorded: increases the deacetylase activity of HDAC1” and the “reversal of HDAC1 inhibition by CI-994” value is “capable of reversing inhibition”. In addition, in data set [7] (FIG. 4), the “selectivity for HDAC1 activation compared with HDAC2” value is “at least four fold more selective”. For the same compound, in data set [7] (FIG. 4, read-out: EC50 for HDAC1 activation (selectivity experiment)), the EC50 was 20 nM. In addition, the concentration giving a half-maximal response (EC50) in data set [7] (FIGS. 1B and 1D, 2 hour incubation of HDAC1 at room temperature prior to addition to reaction mix, read-out: EC50 of HDAC1 activation) was 45 nM. Also, in data set [7] (listed as Exifone), the “reversal of HDAC1 inhibition by CI-994” value is “partially reversed the inhibitory effect”. Further, the “HDAC1 activation at high substrate concentration” value in data set [7] (bio-H4K12ac peptide concentrations of 125 and 250 μM) was “No activation was observed”. In addition, in data set [7] (setting [9]), the “Vmax of HDAC1 reaction” value is “increased the Vmax” and the “apparent Km for the bio-H4K12ac peptide” value is reported as “decreased the apparent Km”. In addition, in data set [7] (substrate 1 μM, HDAC1 40 nM, exifone 0.05 μM vs control), the “rate of HDAC1-mediated deacetylation (substrate conversion)” value is recorded as “increased the rate of HDAC1-mediated reactions compared to control conditions; also recorded: increases the rate of deacetylation reaction by HDAC1”. Besides, the “mechanism of HDAC1 activation” value in data set [7] (varied substrate and activator concentrations) was “mixed non-essential reaction”. Further, in data set [8] (setting [10]), the “basal locomotion in the open-field test” value was “without an effect on basal locomotion” and the “cognitive function in cued fear-conditioning test” value is on record as “not in cued fear-conditioning test”. Besides, in data set [8] (CK-p25 mice, 24 hours after training), the “freezing behavior / cognitive function in contextual fear conditioning test” value was “enhances the cognitive function; also recorded: comparable freezing behavior to vehicle-treated or exifone-treated control mice”. For the same compound, the “neuronal loss / markers of neurodegeneration (γH2A.X, NeuN, Hoechst) in hippocampus” value in data set [8] (CK-p25 mice, daily for 3 weeks during p25 induction) is “significantly ameliorated neuronal loss; also recorded: significant reduction of these markers of neurodegeneration; also recorded: ameliorates neuronal loss”.
Turning to `O=C(c1ccccc1)c1ccccc1` [Benzophenone], the “HDAC1 activation (deacetylase activity)” value was “did not cause HDAC1 activation” in data set [7] and “does not” in data set [7] (listed as non-hydroxylated benzophenone).
